The source of these data is publication PMC8662641, “Site-Specific Labeling of Endogenous Proteins Using CoLDR Chemistry” (Journal of the American Chemical Society, 2021).

Assay [1] has as its target T1, BTK kinase domain (Homo sapiens, UniProt Q06187). Briefly: Labeling of recombinant BTK by intact protein LC/MS. Also noted: BTK kinase domain was expressed and purified as previously reported; made in house. In kind it is binding. The following applies: BTK 10.7 µM, 20 µM compound, 1 hour.
Assay [2] concerns primary mouse B cells. Description: B-cell response experiment (CD86 after anti-IgM). The note with it: 24 h treatment, 1–1000 nM. The format is cell-based. Here is the method: Splenic cells from C57BL/6 mice were isolated by forcing spleen tissue through the mesh into PBS containing 2% fetal calf serum and 1 mM EDTA, and red blood cells were depleted by lysis buffer. […] Following a 24 h incubation, cells were stimulated with anti-IgM overnight (5 μg/mL, Sigma-Aldrich). […] Single-cell suspensions were analyzed by a flow cytometer (CytoFlex, Beckman Coulter).

Assay [3] addresses T2, BTK (Homo sapiens, UniProt Q06187). Briefly: BTK activity in Mino cells (autophosphorylation). The note with it: Mino cells, 1 h; 100 nM probes, 1 μM ibrutinib or Ibr-H. In kind it is cell-based. Further details: We incubated Mino B cells with probes containing different tags; endogenous in cells; host or cells: Mino cells. Here is the method: The cells were harvested, and immunoblots of phospho-BTK, total-BTK, and β-actin were performed.
Cell pellets were washed with ice-cold PBS and lysed using RIPA buffer (Sigma, R0278). […] Samples containing 50 μg of total protein were prepared with 4× LDS sample buffer (NuPAGE, Thermo Fischer Scientific, NP0007) and were then resolved on a 4–20% Bis-Tris gel (GeneScript SurePAGE, M00657). […] The EZ-ECL kit (Biological Industries, 20-500-1000) was used to detect HRP activity.

The target of assay [4] is T2, BTK. Description: In-gel fluorescence labeling profile in Mino cells. The note with it: 2 h incubation, in-gel fluorescence.
Procedure: Lysates were then diluted to 2 mg/mL in PBS. […] The samples were incubated at 25 °C for 2 h. A 20 μL amount of 4× LDS sample buffer (NuPAGE, Thermo Fisher Scientific, NP0007) was added followed by a 10 min incubation at 70 °C.
The 1× chloroform, 4× methanol, and 3× water were added to the samples and vortexed thoroughly. The samples were spun down for 10 min at 4 °C. The top layer was aspirated, and the pellet was resuspended in 4× methanol. The sample was vortexed and spun down again for 10 min at 4 °C, the solution was removed, and the pellet was dried for 2 min. The pellet was dissolved in 42 μL of PBS followed by 14 μL of 4× sample buffer. The samples were then loaded on a 4–20% Bis-Tris gel (SurePAGE, GeneScript) and imaged using a Typhoon FLA 9500 scanner.
The target of assay [5] is T1, BTK kinase domain. Briefly: MS/MS site-of-labeling analysis of BTK tryptic peptides. In kind it is binding. Also noted: BTK kinase domain was expressed and purified as previously reported; made in house. Here is the method:
100 μl of 5 μM Recombinant BTK kinase domain was incubated in 20 mM Tris with 50 μM of 1b or DMSO. The compounds were then removed by methanol-chloroform (400 μL MeOH+100 μL CHCl3+300 μL H2O) precipitation of the protein. The dry pellet was dissolved in 50 μl of 50 mM Tris pH 8 + 5% SDS and heated to 95 °C for 6 min. The concentration of the protein was estimated using BCA assay (using BSA as the standard). 2 μg each sample were diluted to 15 μl with Tris 50 mM pH 8 + 5% SDS, reduced with DTT (0.75 μl of 0.1 M in 5% SDS/Tris 50 mM pH 8, 45 min 65 °C), cooled to room temperature, then alkylated with 0.75 μl of 0.2 M iodoacetamide in water (30 min room temperature in the dark). The protein was then isolated and trypsinized on s-traps (Protifi) according to the manufacturer's instructions. Triplicates were prepared for each […]
ULC/MS grade solvents were used for all chromatographic steps. Each sample was loaded using split-less nano-Ultra Performance Liquid Chromatography (10 kpsi nanoAcquity; Waters, Milford, MA, USA). The mobile phase was: A) H2O + 0.1% formic acid and B) acetonitrile + 0.1% formic acid. Desalting of the samples was performed online using a reversed-phase Symmetry C18 trapping column (180 µm internal diameter, 20 mm length, 5 µm particle size; Waters). The peptides were then separated using a T3 HSS nano-column (75 µm internal diameter, 250 mm length, 1.8 µm particle size; Waters) at 0.35 µL/min. Peptides were eluted from the column into the mass spectrometer using the following gradient: 4% to 30%B in 155 min, 35% to 90%B in 5 min, maintained at 90% for 5 min and then back to initial conditions.
The nanoUPLC was coupled online through a nanoESI emitter (10 μm tip; New Objective; Woburn, MA, USA) to a quadrupole orbitrap mass spectrometer (Q Exactive HFX, Thermo Scientific) using a FlexIon nanospray apparatus (Proxeon).
Data was acquired in data dependent acquisition (DDA) mode, using a Top10 method. MS1 […]
maximum injection time was set to 60msec. MS2 resolution was set to 15,000, quadrupole isolation 1.7 m/z, AGC of 1e5, dynamic exclusion of 45 sec and maximum injection time of 60 […]
Analysis was done using MaxQuant 1.6.3.4. The sequence of BTK was used for the analysis. The digestion enzyme was set to Trypsin with a maximum number of missed cleavages of 0.
Carbamidomethyl and the modification by the molecule were included as variable modifications on cysteine. The “Re-quantify” option was enabled. Contaminants were included. Peptides were searched with a minimum peptide length of 7 and a maximum peptide mass of 4,500 Da. “Second peptides” were enabled and “Dependent peptides” were disabled. The option “Match between runs” was enabled with a Match time window of 0.7 min and an alignment window of 20 min. An FDR of 0.01 was used for Protein FDR, PSM FDR and XPSM FDR. The triplicate measured for each compound (or for DMSO-treated protein) was analyzed separately.
Following MaxQuant analysis, only fully cleaved peptides were quantified and cysteine-containing peptides that were not modified by either iodoacetamide or compound were ignored.
The intensity for each peptide was calculated as the average of the three triplicates. If the intensity was zero for one of the replicates the peptide was ignored. The intensities for the non-cysteine containing peptides were averaged for each data set and used to normalize the intensity of cysteine-containing peptides. Estimation of the extent of labeling of cysteine-containing peptides in the sequence was done by comparing the intensity of carbamidomethyl-modified peptides between the DMSO and molecule-treated samples. MS/MS spectra for the carbamidomethyl-modified and molecule modified peptides were extracted using Skyline. […]
The obtained

T1 sequence (Q06187 402-655 limits assumed): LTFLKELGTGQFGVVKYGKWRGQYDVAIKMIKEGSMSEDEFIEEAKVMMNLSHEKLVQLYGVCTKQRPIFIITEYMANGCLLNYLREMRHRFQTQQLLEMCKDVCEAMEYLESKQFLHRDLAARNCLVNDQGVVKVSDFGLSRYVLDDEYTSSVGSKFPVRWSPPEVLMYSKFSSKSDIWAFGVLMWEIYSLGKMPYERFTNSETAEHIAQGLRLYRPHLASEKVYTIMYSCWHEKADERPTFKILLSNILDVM
T2 sequence (Q06187 whole entry): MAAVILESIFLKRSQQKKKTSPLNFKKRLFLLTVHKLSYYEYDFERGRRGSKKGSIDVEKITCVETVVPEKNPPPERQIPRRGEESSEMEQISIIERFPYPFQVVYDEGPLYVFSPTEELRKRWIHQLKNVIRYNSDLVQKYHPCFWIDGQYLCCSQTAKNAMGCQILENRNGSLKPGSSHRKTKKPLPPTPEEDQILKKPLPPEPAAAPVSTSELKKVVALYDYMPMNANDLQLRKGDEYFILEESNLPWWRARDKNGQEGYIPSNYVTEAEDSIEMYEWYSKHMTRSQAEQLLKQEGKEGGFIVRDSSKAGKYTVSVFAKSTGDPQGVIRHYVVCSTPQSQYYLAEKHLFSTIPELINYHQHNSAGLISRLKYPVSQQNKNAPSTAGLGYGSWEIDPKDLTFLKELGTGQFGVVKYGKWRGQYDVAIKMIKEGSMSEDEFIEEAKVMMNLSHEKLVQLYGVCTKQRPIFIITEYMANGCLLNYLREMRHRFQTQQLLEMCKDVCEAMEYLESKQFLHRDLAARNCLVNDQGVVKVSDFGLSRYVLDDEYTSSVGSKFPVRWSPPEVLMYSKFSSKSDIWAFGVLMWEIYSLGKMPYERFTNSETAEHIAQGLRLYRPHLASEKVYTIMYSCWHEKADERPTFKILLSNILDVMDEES

`C#CCCNC(=O)C(=C)CN1CCC[C@@H](n2nc(-c3ccc(Oc4ccccc4)cc3)c3c(N)ncnc32)C1` [1b]: the “labeling of BTK (SPR sample preparation)” value in assay [1] amounted to 100%. Further, in assay [2], the “B cell activation (CD86 expression) after anti-IgM” value is “did not inhibit the activation of B cells”. In addition, the “BTK autophosphorylation after anti-IgM” value in assay [3] was “BTK remained active after labeling”. In addition, in assay [4], the “labeling of BTK in live Mino cells” value was “robust labeling even at a concentration of 10 nM”. The “site of modification on BTK” value in assay [5] (LC/MS/MS of tryptic peptides) is “Cys481”. Moreover, the “1b/DMSO ratio after correction” value in assay [5] (iodoacetamide labeled peptide 457-466 LVQLYGVCTK) amounted to 0.891; in assay [5] (iodoacetamide labeled peptide 467-487 QRPIFIITEYMANGCLLNYLR), 0.092; in assay [5] (iodoacetamide labeled peptide 493-503 FQTQQLLEMCK), 0.469; in assay [5] (iodoacetamide labeled peptide 504-515 DVCEAMEYLESK), 0.413; in assay [5] (iodoacetamide labeled peptide 526-536 NCLVNDQGVVK), 0.724; in assay [5] (iodoacetamide labeled peptide 626-637 VYTIMYSCWHEK) it was 0.735.
